Measured values taken from patent publication US9573966B2, “Anti-cancer activity of novel bicyclic heterocycles” (Katholieke Universiteit Leuven, K.U.Leuven R&D, priority 2010, dated 2017).

Columns and labels:
HSB-2 cells = assay: Inhibition of HSB-2 leukemic cell line proliferation (WST-1); format: cell-based, human; details: cytotoxicity on HSB-2 cells, two days incubation, WST-1 read-out
Method in brief: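 HSB-2 human ALL cells, 50000/well in RPMI-1640 + 10% FCS, exposed to compounds 2 days at 37 °C, then WST-1 2 h, OD 450 nm. Proliferation scaled between untreated (max) and Triton X100 (min) controls; IC50 from ≥4-point curves, each point mean of ≥2 experiments.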

HL-60 cells = assay: Inhibition of HL-60 leukemic cell line proliferation (WST-1); format: cell-based, human; details: cytotoxicity on HL-60 cells, two days incubation, WST-1 read-out
Description: HL-60 cell line, a human promyelocytic leukemia (ATCC; CCL-240) cell line, was grown in RPMI-1640 medium (Lonza, Belgium) supplemented with 10% fetal calf serum (Hyclone, US) and antibiotics. Exponential growing phase cells were seed in flat bottom 96-well microplates (TTP, Switzerland) at 50000 cells per well in 220 μl of medium with compounds (in different concentrations) and incubated for two days at 37° C., 5% CO2. After incubation, 100 μl of supernatant were removed and 10 μl of WST-1 (Roche, Switzerland) were added. After 2 hour incubation at 37° C., 5% CO2, optical densities were measured at 450 nm. Proliferation is calculated with respect of control points (no compound and treatment with Triton X100 to have maximum and minimum proliferation data). The IC50 was determined from a graph with at least four points, each derived from the mean of at least 2 experiments. […] The results are shown in Table 2 for a number of compounds.

LNCaP cells = assay: Inhibition of LNCaP prostate carcinoma cell line proliferation (WST-1); format: cell-based; details: Homo sapiens, 48 h; cytotoxicity on LNCaP cells, two days incubation, WST-1 read-out
Description: LNCaP cell line, a prostate carcinoma cell line, was grown in RPMI-1640 medium (Lonza, Belgium) supplemented with 10% fetal calf serum (Hyclone, US) and antibiotics. Exponential growing phase cells were seed in flat bottom 96-well microplates (TTP, Switzerland) at 10000 cells per well in 200 μl of medium. The day after, 20 μl of compounds (in different concentrations) were added and incubated for two days at 37° C., 5% CO2. After incubation, 100 μl of supernatant were removed and 10 μl of WST-1 (Roche, Switzerland) were added. After 2 hour incubation at 37° C., 5% CO2, optical densities were measured at 450 nm. Proliferation is calculated with respect of control points (no compound and treatment with Triton X100 to have maximum and minimum proliferation data). The IC50 was determined from a graph with at least four points, each derived from the mean of at least 2 experiments. […] The results are shown in Table 3 for a number of compounds.

hu EOL-1 leukemia = details: Example 222 p.o. once daily, cyclophosphamide once i.p.
Description: The test compound (Example 222) was dissolved in DMSO (5% final concentration) and further solubilised in 0.5% Tween 80 in 1% methylcellulose. The resulting suspension was warmed for 10 minutes to 37° C. in an ultrasound water bath to obtain a homogeneous formulation for oral administration. At day 0, 24 male NSG mice received a s.c. inoculum of 10^7 EOL-1 cells taken from in vitro culture and mixed with 50% matrigel. At day 10 tumours were palpable, mice were randomized into three treatment groups and therapy initiated. The test compound (Example 222) and the vehicle were administered orally (p.o.) once daily until the end of the experiment. Cyclophosphamide was administered only once intraperitoneally (i.p.).

Cc1cccc(NC(=O)N2CCN(c3nc(N)nc4sc(-c5ccccc5)nc34)CC2)c1 [Example 220, 4-(5-amino-2-phenylthiazolo[5,4-d]pyrimidin-7-yl)-N-m-tolylpiperazine-1-carboxamide]
IC50 (HSB-2 cells; Homo sapiens, HSB2, 48 h): 0.77 µM | IC50 (HL-60 cells; Homo sapiens, 48 h): 0.92 µM | IC50 (LNCaP cells): 11.2 µM

Nc1nc(N2CCN(C(=O)Nc3ccccc3)CC2)c2nc(-c3cccnc3)sc2n1 [Example 440, 4-(5-amino-2-(pyridin-3-yl)thiazolo[5,4-d]pyrimidin-7-yl)-N-phenylpiperazine-1-carboxamide]
IC50 (HSB-2 cells; Homo sapiens, HSB2, 48 h): 0.058 µM | IC50 (HL-60 cells; Homo sapiens, 48 h): 0.064 µM | IC50 (LNCaP cells): 17.1 µM

COc1ccc(OCC(=O)N2CCN(c3nc(N)nc4sc(-c5cccnc5)nc34)CC2)cc1 [Example 271, 1-(4-(5-amino-2-(pyridin-3-yl)thiazolo[5,4-d]pyrimidin-7-yl)piperazin-1-yl)-2-(4-methoxyphenoxy)ethanone]
IC50 (HSB-2 cells; Homo sapiens, HSB2, 48 h): 0.06 µM | IC50 (HL-60 cells; Homo sapiens, 48 h): 0.1 µM | IC50 (LNCaP cells): > 100 µM

O=P1(N(CCCl)CCCl)NCCCO1 (stereo not drawn) [Cyclophosphamide, reference compound]
body weight loss (hu EOL-1 leukemia; EOL-1 xenograft in NSG mice): 6% | tolerability (hu EOL-1 leukemia; EOL-1 xenograft in NSG mice): well tolerated | effect on tumour growth (tumour volume) relative to vehicle (hu EOL-1 leukemia; s.c. EOL-1 tumours in NSG mice, therapy from day 10 to day 21): highly significant (p<0.05) inhibition of tumour growth

CC(C)(Oc1ccc(Cl)cc1)C(=O)N1CCN(c2nc(N)nc3sc(-c4cccnc4)nc23)CC1 [Example 274, 1-(4-(5-amino-2-(pyridin-3-yl)thiazolo[5,4-d]pyrimidin-7-yl)piperazin-1-yl)-2-(4-chlorophenoxy)-2-methylpropan-1-one]
IC50 (LNCaP cells): 18.2 µM

COc1ccc(CNC(=O)N2CCN(c3nc(N)nc4sc(-c5cccnc5)nc34)CC2)cc1 [Example 278, 4-(5-amino-2-(pyridin-3-yl)thiazolo[5,4-d]pyrimidin-7-yl)-N-(4-methoxybenzyl)piperazine-1-carboxamide]
IC50 (HSB-2 cells; Homo sapiens, HSB2, 48 h): 0.75 µM | IC50 (HL-60 cells; Homo sapiens, 48 h): 0.68 µM

Nc1nc(N2CCN(C(=O)COc3ccc(Cl)cc3)CC2)c2cc(-c3ccc(F)cc3)sc2n1 [Example 326, 1-(4-(2-amino-6-(4-fluorophenyl)thieno[2,3-d]pyrimidin-4-yl)piperazin-1-yl)-2-(4-chlorophenoxy)ethanone]
IC50 (HSB-2 cells; Homo sapiens, HSB2, 48 h): 8.97 µM | IC50 (HL-60 cells; Homo sapiens, 48 h): > 10 µM

CN(C(=O)CN1CCN(c2nc(N)nc3oc(CCc4ccc(F)cc4)nc23)CC1)c1ccccc1 [Example 198, 5-amino-2-[2-(4-fluorophenyl)ethyl]-7-(4-[(methylphenyl-carbamoyl)methyl]piperazin-1-yl)-oxazolo[5,4-d]pyrimidine]
IC50 (HSB-2 cells; Homo sapiens, HSB2, 48 h): > 10 µM | IC50 (HL-60 cells; Homo sapiens, 48 h): > 10 µM

Cc1nc2c(N3CCN(C(=O)COc4ccc(Cl)cc4)CC3)nc(N)nc2[nH]1 [Example 400, 1-(4-(2-amino-8-methyl-9H-purin-6-yl)piperazin-1-yl)-2-(4-chlorophenoxy)ethanone]
IC50 (HSB-2 cells; Homo sapiens, HSB2, 48 h): 2.06 µM | IC50 (HL-60 cells; Homo sapiens, 48 h): 2.98 µM

Nc1nc(N2CCN(C(=O)COc3ccc(Cl)cc3)CC2)c2nc(C3CC3)[nH]c2n1 [Example 398, 1-(4-(2-amino-8-cyclopropyl-9H-purin-6-yl)piperazin-1-yl)-2-(4-chlorophenoxy)ethanone]
IC50 (HSB-2 cells; Homo sapiens, HSB2, 48 h): 4.78 µM | IC50 (HL-60 cells; Homo sapiens, 48 h): 6.08 µM

Cc1ccc(-c2nc3c(N4CCN(C(=O)COc5ccc(Cl)cc5)CC4)nc(N)nc3[nH]2)cc1 [Example 396, 1-(4-(2-amino-8-p-tolyl-9H-purin-6-yl)piperazin-1-yl)-2-(4-chlorophenoxy)ethanone]
IC50 (HSB-2 cells; Homo sapiens, HSB2, 48 h): 0.49 µM | IC50 (HL-60 cells; Homo sapiens, 48 h): 4.97 µM

Nc1nc(N2CCN(C(=O)COc3ccc(Cl)cc3)CC2)c2nc(-c3ccc(Cl)c(Cl)c3)sc2n1 [Example 116, 5-amino-7-[4-(4-chlorophenoxyacetyl)piperazin-1-yl]-2-(3,4-dichlorophenyl)thiazolo[5,4-d]pyrimidine]
IC50 (HSB-2 cells; Homo sapiens, HSB2, 48 h): 6.01 µM | IC50 (HL-60 cells; Homo sapiens, 48 h): 8.59 µM

Nc1nc(N2CCN(C(=O)COc3ccc(Cl)cc3)CC2)c2nc(-c3ccc[n+]([O-])c3)sc2n1 [Example 121b, 5-amino-7-[4-(4-chlorophenoxyacetyl)piperazin-1-yl]-2-(N-oxopyridine-3-yl)thiazolo[5,4-d]pyrimidine]
IC50 (HSB-2 cells): 6.19 µM | IC50 (HL-60 cells): 4.89 µM

CCCSc1nc2c(N3CCN(C(=O)COc4ccc(Cl)cc4)CC3)nc(N)nc2[nH]1 [Example 425, 1-(4-(2-amino-8-(propylthio)-9H-purin-6-yl)piperazin-1-yl)-2-(4-chlorophenoxy)ethanone]
IC50 (HSB-2 cells; Homo sapiens, HSB2, 48 h): 4.57 µM | IC50 (HL-60 cells; Homo sapiens, 48 h): 8.83 µM

Nc1nc(N2CCN(C(=O)CCc3ccccc3)CC2)c2cc(-c3ccc(F)cc3)sc2n1 [Example 343, 1-(4-(2-amino-6-(4-fluorophenyl)thieno[2,3-d]pyrimidin-4-yl)piperazin-1-yl)-3-phenylpropan-1-one]
IC50 (HSB-2 cells; Homo sapiens, HSB2, 48 h): > 10 µM | IC50 (HL-60 cells; Homo sapiens, 48 h): > 10 µM

Cc1cccc(NC(=O)N2CCN(c3nc(N)nc4sc(-c5ccccc5)cc34)CC2)c1 [Example 330, 4-(2-amino-6-phenylthieno[2,3-d]pyrimidin-4-yl)-N-m-tolylpiperazine-1-carboxamide]
IC50 (HSB-2 cells; Homo sapiens, HSB2, 48 h): 7.61 µM | IC50 (HL-60 cells; Homo sapiens, 48 h): > 10 µM

Nc1nc(N2CCN(C(=O)COc3ccc(OC(F)(F)F)cc3)CC2)c2nc(-c3cccnc3)sc2n1 [Example 273, 1-(4-(5-amino-2-(pyridin-3-yl)thiazolo[5,4-d]pyrimidin-7-yl)piperazin-1-yl)-2-(4-trifluoromethoxyphenoxy)ethanone]
IC50 (HSB-2 cells; Homo sapiens, HSB2, 48 h): 0.81 µM | IC50 (HL-60 cells; Homo sapiens, 48 h): 4.84 µM

Nc1nc(N2CCN(c3ccc(Cl)cc3)CC2)c2nc(-c3ccc(F)cc3)[nH]c2n1 [Example 414, 6-(4-(4-chlorophenyl)piperazin-1-yl)-8-(4-fluorophenyl)-9H-purin-2-amine]
IC50 (HSB-2 cells; Homo sapiens, HSB2, 48 h): > 10 µM | IC50 (HL-60 cells; Homo sapiens, 48 h): > 10 µM

Nc1nc(N2CCCN(C(=O)COc3ccc(Cl)cc3)CC2)c2nc(-c3ccc(F)cc3)[nH]c2n1 [Example 421, 1-(4-(2-amino-8-(4-fluorophenyl)-9H-purin-6-yl)-1,4-diazepan-1-yl)-2-(4-chlorophenoxy)ethanone]
IC50 (HSB-2 cells; Homo sapiens, HSB2, 48 h): > 10 µM | IC50 (HL-60 cells; Homo sapiens, 48 h): > 10 µM

COc1cccc(-c2nc3c(N4CCN(C(=O)COc5ccc(Cl)cc5)CC4)nc(N)nc3s2)c1 [Example 124, 5-amino-7-[4-(4-chlorophenoxyacetyl)piperazin-1-yl]-2-(3-methoxyphenyl)thiazolo[5,4-d]pyrimidine]
IC50 (HSB-2 cells; Homo sapiens, HSB2, 48 h): 2.29 µM | IC50 (HL-60 cells; Homo sapiens, 48 h): 0.96 µM

Nc1nc(N2CCN(C(=O)COc3ccc(Br)cc3)CC2)c2nc(-c3ccc(F)cc3)sc2n1 [Example 128, 5-amino-2-(4-fluorophenyl)-7-(4-[2-(4-bromophenoxy)acetyl]-piperazin-1-yl)-thiazolo[5,4-d]pyrimidine]
IC50 (HSB-2 cells): 5.62 µM | IC50 (HL-60 cells; Homo sapiens, 48 h): 6.47 µM

Nc1nc(N2CCN(C(=O)COc3ccc(Cl)cc3)CC2)c2nc(CCc3ccc(F)cc3)oc2n1 [Example 172, 1-(4-(5-amino-2-(4-fluorophenethyl)oxazolo[5,4-d]pyrimidin-7-yl)piperazin-1-yl)-2-(4-chlorophenoxy)ethanone]
IC50 (HSB-2 cells; Homo sapiens, HSB2, 48 h): > 10 µM | IC50 (HL-60 cells; Homo sapiens, 48 h): > 10 µM

Nc1nc(N2CCN(C(=O)CCc3ccc(F)cc3)CC2)c2nc(-c3ccc(F)cc3)sc2n1 [Example 236, 1-(4-(5-amino-2-(4-fluorophenyl)thiazolo[5,4-d]pyrimidin-7-yl)piperazin-1-yl)-3-(4-fluorophenyl)propan-1-one]
IC50 (HSB-2 cells; Homo sapiens, HSB2, 48 h): 5.57 µM | IC50 (HL-60 cells; Homo sapiens, 48 h): 8.2 µM

Nc1nc(N2CCN(C(=O)COc3ccc(Cl)cc3)CC2)c2nc(-c3ccccn3)sc2n1 [Example 282, 1-(4-(5-amino-2-(pyridin-2-yl)thiazolo[5,4-d]pyrimidin-7-yl)piperazin-1-yl)-2-(4-chlorophenoxy)ethanone]
IC50 (HSB-2 cells; Homo sapiens, HSB2, 48 h): 0.56 µM | IC50 (HL-60 cells; Homo sapiens, 48 h): 0.92 µM
